Data as given in patent publication US20230270712A1, “NOBILETIN COMPOSITIONS AND METHODS FOR THE TREATMENT AND PREVENTION OF COVID-19 AND RELATED PATHOLOGIES” (CAS PROPERTIES, LLC, priority 2020, published 2023).
Read-outs that look alike come from different tables or passages of the source.

Key:
[1] = bioavailability and tissue penetration; details: in vivo
lung function = lung function in subjects having severe pneumonia; type: in vivo; details: including from COVID-19
chikungunya (CHIKV) = details: cited from earlier work
enterovirus 71 = details: cited from earlier work
hepatitis C virus = details: cited from earlier work
TNF-α = details: cited from earlier work
IL1-β = details: cited from earlier work
IL-6 = details: cited from earlier work
IL1-α = details: cited from earlier work
MCP-1 = details: cited from earlier work
[2] = tested on: toll-like receptor (TLR) 2+TLR4; details: cited from earlier work
COX-2 = COX-2 (Homo sapiens, UniProt P35354); details: cited from earlier work
COX-2, sequence (P35354 18-604): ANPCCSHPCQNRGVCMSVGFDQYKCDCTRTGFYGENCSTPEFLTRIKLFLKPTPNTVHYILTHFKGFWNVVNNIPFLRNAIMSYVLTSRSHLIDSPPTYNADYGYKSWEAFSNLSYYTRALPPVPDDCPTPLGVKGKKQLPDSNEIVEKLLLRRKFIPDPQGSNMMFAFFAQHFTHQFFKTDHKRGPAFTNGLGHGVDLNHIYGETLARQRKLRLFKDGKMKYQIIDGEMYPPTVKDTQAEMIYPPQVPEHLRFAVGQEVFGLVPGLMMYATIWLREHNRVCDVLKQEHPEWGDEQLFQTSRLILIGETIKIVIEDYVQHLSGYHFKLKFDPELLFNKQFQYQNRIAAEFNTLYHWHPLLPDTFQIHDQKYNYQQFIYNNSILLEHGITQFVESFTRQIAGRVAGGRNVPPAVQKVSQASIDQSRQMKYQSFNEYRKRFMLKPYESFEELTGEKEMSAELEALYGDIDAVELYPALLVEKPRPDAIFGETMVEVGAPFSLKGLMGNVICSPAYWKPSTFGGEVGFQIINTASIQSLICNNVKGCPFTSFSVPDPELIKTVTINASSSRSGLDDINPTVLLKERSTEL

[3] = tested on: leukocyte infiltration into inflamed tissue; details: in vivo; cited from earlier work
MMP-1 = MMP-1 (Homo sapiens, UniProt P03956); details: cited from earlier work
MMP-1, sequence (P03956 100-469, species assumed): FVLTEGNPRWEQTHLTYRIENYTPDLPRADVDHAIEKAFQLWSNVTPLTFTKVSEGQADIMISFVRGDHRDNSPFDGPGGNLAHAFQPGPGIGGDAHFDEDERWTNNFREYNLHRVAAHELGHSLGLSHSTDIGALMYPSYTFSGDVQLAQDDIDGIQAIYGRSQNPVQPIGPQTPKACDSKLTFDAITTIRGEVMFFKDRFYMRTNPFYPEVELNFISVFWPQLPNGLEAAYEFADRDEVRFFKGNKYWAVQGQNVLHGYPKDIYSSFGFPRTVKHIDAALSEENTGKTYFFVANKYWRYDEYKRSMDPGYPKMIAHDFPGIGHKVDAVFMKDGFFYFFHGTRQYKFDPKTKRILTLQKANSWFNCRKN

MMP-2 = MMP-2 (Homo sapiens, UniProt P08253); details: cited from earlier work
MMP-2, sequence (P08253 110-660, species assumed): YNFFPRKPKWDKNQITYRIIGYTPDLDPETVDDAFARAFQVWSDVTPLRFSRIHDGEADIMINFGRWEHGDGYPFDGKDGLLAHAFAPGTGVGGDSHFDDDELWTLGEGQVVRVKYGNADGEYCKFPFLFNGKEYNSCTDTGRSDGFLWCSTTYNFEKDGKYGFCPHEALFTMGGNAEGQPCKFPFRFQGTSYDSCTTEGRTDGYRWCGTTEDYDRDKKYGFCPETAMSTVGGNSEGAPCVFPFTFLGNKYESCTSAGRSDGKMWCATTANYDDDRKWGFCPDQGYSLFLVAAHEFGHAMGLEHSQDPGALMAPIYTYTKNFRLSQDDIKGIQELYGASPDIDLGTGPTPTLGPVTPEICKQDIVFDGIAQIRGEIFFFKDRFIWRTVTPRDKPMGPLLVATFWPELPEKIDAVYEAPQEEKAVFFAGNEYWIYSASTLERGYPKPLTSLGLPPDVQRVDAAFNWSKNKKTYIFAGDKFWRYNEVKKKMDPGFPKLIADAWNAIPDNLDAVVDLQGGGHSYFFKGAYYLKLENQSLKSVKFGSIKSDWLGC

MMP-3 = MMP-3 (Homo sapiens, UniProt P08254); details: cited from earlier work
MMP-3, sequence (P08254 100-477, species assumed): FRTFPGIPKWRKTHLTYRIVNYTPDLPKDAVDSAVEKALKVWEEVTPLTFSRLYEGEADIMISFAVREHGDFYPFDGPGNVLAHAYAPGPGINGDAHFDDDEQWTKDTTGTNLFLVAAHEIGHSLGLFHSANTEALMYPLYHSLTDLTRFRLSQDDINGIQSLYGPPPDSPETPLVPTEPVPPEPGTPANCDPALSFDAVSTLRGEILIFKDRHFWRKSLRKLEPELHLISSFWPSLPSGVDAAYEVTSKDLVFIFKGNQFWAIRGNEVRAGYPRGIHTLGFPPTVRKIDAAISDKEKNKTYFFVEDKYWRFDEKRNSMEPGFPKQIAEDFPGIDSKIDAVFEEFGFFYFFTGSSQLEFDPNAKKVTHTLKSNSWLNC

MMP-9 = MMP-9 (Homo sapiens, UniProt P14780); details: cited from earlier work
MMP-9, sequence (P14780 94-707, species assumed): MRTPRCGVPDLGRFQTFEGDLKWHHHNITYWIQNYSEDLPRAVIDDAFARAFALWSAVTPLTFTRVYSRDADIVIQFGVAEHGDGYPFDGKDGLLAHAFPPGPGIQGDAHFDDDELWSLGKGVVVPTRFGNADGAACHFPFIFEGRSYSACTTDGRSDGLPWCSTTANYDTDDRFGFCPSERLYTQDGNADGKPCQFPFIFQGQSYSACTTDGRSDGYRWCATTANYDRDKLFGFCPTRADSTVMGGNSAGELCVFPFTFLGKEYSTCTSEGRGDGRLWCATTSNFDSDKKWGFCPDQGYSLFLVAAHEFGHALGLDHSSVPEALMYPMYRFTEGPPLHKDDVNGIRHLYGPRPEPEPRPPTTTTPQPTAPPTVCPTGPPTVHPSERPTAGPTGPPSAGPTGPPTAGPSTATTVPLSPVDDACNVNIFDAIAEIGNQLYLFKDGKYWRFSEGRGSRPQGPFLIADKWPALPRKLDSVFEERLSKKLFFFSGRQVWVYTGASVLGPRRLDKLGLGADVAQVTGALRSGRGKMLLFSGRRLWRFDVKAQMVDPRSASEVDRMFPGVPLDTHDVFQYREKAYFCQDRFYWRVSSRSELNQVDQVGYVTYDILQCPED

TIMP-1 = details: cited from earlier work
platelet aggregation = details: cited from earlier work
induced lung damage = details: acute lung injury research model, dose-dependent; cited from earlier work
[4] = tested on: natural killer (NK) cells; details: cited from earlier work
[5] = tested on: 5′ adenosine monophosphate-activated protein kinase (AMPK); details: cited from earlier work
[6] = in vivo; cited from earlier work
[7] = higher concentration of nobiletin

COc1ccc(-c2cc(=O)c3c(OC)c(OC)c(OC)c(OC)c3o2)cc1OC [nobiletin, 5,6,7,8,3′,4′-hexamethoxyflavone]
relative bioavailability [1]: high relative bioavailability
tissue penetration [1]: high tissue penetration
lung function (lung function): excellent ability to restore lung function
inhibition of chikungunya (CHIKV) infection (chikungunya (CHIKV); at viral entry as well as during translation/replication state): inhibit chikungunya (CHIKV) infection
cell survival of virally infected cells (chikungunya (CHIKV); [7]): ~90%
increase in survival of virally infected cells (chikungunya (CHIKV); [7]): 6 fold
increase in survival of virally infected cells (chikungunya (CHIKV); lower concentration of nobiletin, cell survival without it <15%): 4 fold
anti-viral activity against enterovirus 71 (enterovirus 71): direct anti-viral activity
activity against hepatitis C virus (hepatitis C virus): significant activity
inhibition of TNF-α (TNF-α): significantly inhibiting
inhibition of IL1-β (IL1-β): significantly inhibiting
inhibition of IL-6 (IL-6): significantly inhibiting
inhibition of IL1-α (IL1-α): significantly inhibiting
inhibition of MCP-1 (MCP-1): significantly inhibiting
inhibition of TLR2+TLR4 [2]: significantly inhibiting
inhibition of COX-2 (and its metabolite PGE2) (COX-2): inhibiting
leukocyte infiltration into inflamed tissue [3]: significantly reduces
inhibition of MMP-1 (MMP-1): inhibiting
inhibition of MMP-2 (MMP-2): inhibiting
inhibition of MMP-3 (MMP-3): inhibiting
inhibition of MMP-9 (MMP-9): inhibiting
effect on TIMP-1 (TIMP-1): upregulating
platelet aggregation (platelet aggregation): suppression of platelet aggregation
induced lung damage (induced lung damage): nearly eliminated lung damage
anti-viral activity of NK cells [4]: potentiating
AMPK levels and activity [5]: increasing
anti-obesity effects [6]: weight loss, fat loss
